Measurements taken from PubChem BioAssay (NCI).
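Dose response: 5 concentrations. Exposure: 48 h. Format: 96-well plates. Endpoint: linear interpolation; highest concentration if not reached. Definition used: TGI = concentration required for complete inhibition of growth.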

How the values were obtained:
Assay in all cases: growth of human tumour cells (NCI), 48 h
LOX IMVI melanoma = tested on: LOX IMVI melanoma
U251 CNS = tested on: U251 CNS
SN12C renal = tested on: SN12C renal
MOLT-4 leukemia = tested on: MOLT-4 leukemia
OVCAR-8 ovarian = tested on: OVCAR-8 ovarian
HS 578T breast = tested on: HS 578T breast
UACC-62 melanoma = tested on: UACC-62 melanoma
OVCAR-3 ovarian = tested on: OVCAR-3 ovarian
IGROV1 ovarian = tested on: IGROV1 ovarian
MDA-N = tested on: MDA-N
ACHN renal = tested on: ACHN renal
K-562 leukemia = tested on: K-562 leukemia
KM12 colon = tested on: KM12 colon
SNB-19 CNS = tested on: SNB-19 CNS
HCT-15 colon = tested on: HCT-15 colon
COLO 205 colon = tested on: COLO 205 colon
PC-3 prostate = tested on: PC-3 prostate
HL-60(TB) leukemia = tested on: HL-60(TB) leukemia
RXF 393 renal = tested on: RXF 393 renal
TK-10 renal = tested on: TK-10 renal
CAKI-1 renal = tested on: CAKI-1 renal
EKVX NSCLC = tested on: EKVX NSCLC
SF-268 CNS = tested on: SF-268 CNS
CCRF-CEM leukemia = tested on: CCRF-CEM leukemia
SK-MEL-5 melanoma = tested on: SK-MEL-5 melanoma
SK-OV-3 ovarian = tested on: SK-OV-3 ovarian
T-47D breast = tested on: T-47D breast
A498 renal = tested on: A498 renal
HOP-92 NSCLC = tested on: HOP-92 NSCLC
HT29 colon = tested on: HT29 colon
MDA-MB-435 = tested on: MDA-MB-435
SF-539 CNS = tested on: SF-539 CNS
NCI/ADR-RES ovarian = tested on: NCI/ADR-RES ovarian
A549 NSCLC = tested on: A549 NSCLC
UACC-257 melanoma = tested on: UACC-257 melanoma
NCI-H226 lung = tested on: NCI-H226 lung
MDA-MB-231 breast = tested on: MDA-MB-231 breast
UO-31 renal = tested on: UO-31 renal
NCI-H23 lung = tested on: NCI-H23 lung
HCT-116 colon = tested on: HCT-116 colon
SK-MEL-28 melanoma = tested on: SK-MEL-28 melanoma
OVCAR-5 ovarian = tested on: OVCAR-5 ovarian
OVCAR-4 ovarian = tested on: OVCAR-4 ovarian
NCI-H460 lung = tested on: NCI-H460 lung
BT-549 breast = tested on: BT-549 breast
786-0 renal = tested on: 786-0 renal
MALME-3M melanoma = tested on: MALME-3M melanoma
HCC-2998 colon = tested on: HCC-2998 colon
SF-295 CNS = tested on: SF-295 CNS
SK-MEL-2 melanoma = tested on: SK-MEL-2 melanoma
DU-145 prostate = tested on: DU-145 prostate
MCF7 breast = tested on: MCF7 breast
NCI-H522 lung = tested on: NCI-H522 lung
SW-620 colon = tested on: SW-620 colon
M14 melanoma = tested on: M14 melanoma
SNB-75 CNS = tested on: SNB-75 CNS
HOP-62 NSCLC = tested on: HOP-62 NSCLC
RPMI-8226 leukemia = tested on: RPMI-8226 leukemia

Compound: CC(C#N)NCc1ccc(C(C)NC(C)C#N)cc1 (stereo not drawn)
- TGI (LOX IMVI melanoma): > 100 µM
- TGI (U251 CNS): > 100 µM
- TGI (SN12C renal): > 100 µM
- TGI (MOLT-4 leukemia): > 100 µM
- TGI (OVCAR-8 ovarian): > 100 µM
- TGI (HS 578T breast): > 100 µM
- TGI (UACC-62 melanoma): > 100 µM
- TGI (OVCAR-3 ovarian): > 100 µM
- TGI (IGROV1 ovarian): > 100 µM
- TGI (MDA-N): > 100 µM
- TGI (ACHN renal): > 100 µM
- TGI (K-562 leukemia): > 100 µM
- TGI (KM12 colon): > 100 µM
- TGI (SNB-19 CNS): > 100 µM
- TGI (HCT-15 colon): > 100 µM
- TGI (COLO 205 colon): > 100 µM
- TGI (PC-3 prostate): > 100 µM
- TGI (HL-60(TB) leukemia): > 100 µM
- TGI (RXF 393 renal): > 100 µM
- TGI (TK-10 renal): > 100 µM
- TGI (CAKI-1 renal): > 100 µM
- TGI (EKVX NSCLC): > 100 µM
- TGI (SF-268 CNS): > 100 µM
- TGI (CCRF-CEM leukemia): > 100 µM
- TGI (SK-MEL-5 melanoma): > 100 µM
- TGI (SK-OV-3 ovarian): > 100 µM
- TGI (T-47D breast): > 100 µM
- TGI (A498 renal): > 100 µM
- TGI (HOP-92 NSCLC): > 100 µM
- TGI (HT29 colon): > 100 µM
- TGI (MDA-MB-435): > 100 µM
- TGI (SF-539 CNS): > 100 µM
- TGI (NCI/ADR-RES ovarian): > 100 µM
- TGI (A549 NSCLC): > 100 µM
- TGI (UACC-257 melanoma): > 100 µM
- TGI (NCI-H226 lung): > 100 µM
- TGI (MDA-MB-231 breast): > 100 µM
- TGI (UO-31 renal): > 100 µM
- TGI (NCI-H23 lung): > 100 µM
- TGI (HCT-116 colon): > 100 µM
- TGI (SK-MEL-28 melanoma): > 100 µM
- TGI (OVCAR-5 ovarian): > 100 µM
- TGI (OVCAR-4 ovarian): > 100 µM
- TGI (NCI-H460 lung): > 100 µM
- TGI (BT-549 breast): > 100 µM
- TGI (786-0 renal): > 100 µM
- TGI (MALME-3M melanoma): > 100 µM
- TGI (HCC-2998 colon): > 100 µM
- TGI (SF-295 CNS): > 100 µM
- TGI (SK-MEL-2 melanoma): > 100 µM
- TGI (DU-145 prostate): > 100 µM
- TGI (MCF7 breast): > 100 µM
- TGI (NCI-H522 lung): > 100 µM
- TGI (SW-620 colon): > 100 µM
- TGI (M14 melanoma): > 100 µM

Compound: O=c1cn[nH]c2nc3ccccc3n12
- TGI (LOX IMVI melanoma): > 100 µM
- TGI (U251 CNS): > 100 µM
- TGI (SN12C renal): > 100 µM
- TGI (MOLT-4 leukemia): > 100 µM
- TGI (OVCAR-8 ovarian): > 100 µM
- TGI (HS 578T breast): > 100 µM
- TGI (IGROV1 ovarian): > 100 µM
- TGI (MDA-N): > 100 µM
- TGI (ACHN renal): > 100 µM
- TGI (KM12 colon): > 100 µM
- TGI (SNB-19 CNS): > 100 µM
- TGI (HCT-15 colon): > 100 µM
- TGI (COLO 205 colon): > 100 µM
- TGI (PC-3 prostate): > 100 µM
- TGI (HL-60(TB) leukemia): > 100 µM
- TGI (RXF 393 renal): > 100 µM
- TGI (TK-10 renal): > 100 µM
- TGI (CAKI-1 renal): > 100 µM
- TGI (EKVX NSCLC): > 100 µM
- TGI (SNB-75 CNS): > 100 µM
- TGI (SF-268 CNS): > 100 µM
- TGI (CCRF-CEM leukemia): > 100 µM
- TGI (SK-MEL-5 melanoma): > 100 µM
- TGI (T-47D breast): > 100 µM
- TGI (A498 renal): > 100 µM
- TGI (HOP-92 NSCLC): > 100 µM
- TGI (HT29 colon): > 100 µM
- TGI (MDA-MB-435): > 100 µM
- TGI (SF-539 CNS): > 100 µM
- TGI (NCI/ADR-RES ovarian): > 100 µM
- TGI (A549 NSCLC): > 100 µM
- TGI (UACC-257 melanoma): > 100 µM
- TGI (NCI-H226 lung): > 100 µM
- TGI (MDA-MB-231 breast): > 100 µM
- TGI (UO-31 renal): > 100 µM
- TGI (NCI-H23 lung): > 100 µM
- TGI (HCT-116 colon): > 100 µM
- TGI (SK-MEL-28 melanoma): > 100 µM
- TGI (OVCAR-5 ovarian): > 100 µM
- TGI (OVCAR-4 ovarian): > 100 µM
- TGI (NCI-H460 lung): > 100 µM
- TGI (BT-549 breast): > 100 µM
- TGI (786-0 renal): > 100 µM
- TGI (MALME-3M melanoma): > 100 µM
- TGI (HCC-2998 colon): > 100 µM
- TGI (SF-295 CNS): > 100 µM
- TGI (SK-MEL-2 melanoma): > 100 µM
- TGI (DU-145 prostate): > 100 µM
- TGI (HOP-62 NSCLC): > 100 µM
- TGI (MCF7 breast): > 100 µM
- TGI (NCI-H522 lung): > 100 µM
- TGI (SW-620 colon): > 100 µM
- TGI (M14 melanoma): > 100 µM

Compound: C=CC(O)(CBr)CCC(Br)C(C)(C)Cl (stereo not drawn)
- TGI (U251 CNS): > 10 µM
- TGI (SN12C renal): > 10 µM
- TGI (MOLT-4 leukemia): > 10 µM
- TGI (OVCAR-8 ovarian): > 10 µM
- TGI (HS 578T breast): > 10 µM
- TGI (OVCAR-3 ovarian): > 10 µM
- TGI (IGROV1 ovarian): > 10 µM
- TGI (MDA-N): > 10 µM
- TGI (ACHN renal): > 10 µM
- TGI (K-562 leukemia): > 10 µM
- TGI (KM12 colon): > 10 µM
- TGI (SNB-19 CNS): > 10 µM
- TGI (HCT-15 colon): > 10 µM
- TGI (COLO 205 colon): > 10 µM
- TGI (PC-3 prostate): > 10 µM
- TGI (RXF 393 renal): > 10 µM
- TGI (TK-10 renal): > 10 µM
- TGI (CAKI-1 renal): > 10 µM
- TGI (EKVX NSCLC): > 10 µM
- TGI (SNB-75 CNS): > 10 µM
- TGI (SF-268 CNS): > 10 µM
- TGI (CCRF-CEM leukemia): > 10 µM
- TGI (SK-MEL-5 melanoma): > 10 µM
- TGI (SK-OV-3 ovarian): > 10 µM
- TGI (T-47D breast): > 10 µM
- TGI (A498 renal): > 10 µM
- TGI (HOP-92 NSCLC): > 10 µM
- TGI (HT29 colon): > 10 µM
- TGI (MDA-MB-435): > 10 µM
- TGI (SF-539 CNS): > 10 µM
- TGI (NCI/ADR-RES ovarian): > 10 µM
- TGI (A549 NSCLC): > 10 µM
- TGI (UACC-257 melanoma): > 10 µM
- TGI (NCI-H226 lung): > 10 µM
- TGI (MDA-MB-231 breast): > 10 µM
- TGI (UO-31 renal): > 10 µM
- TGI (NCI-H23 lung): > 10 µM
- TGI (HCT-116 colon): > 10 µM
- TGI (SK-MEL-28 melanoma): > 10 µM
- TGI (OVCAR-5 ovarian): > 10 µM
- TGI (OVCAR-4 ovarian): > 10 µM
- TGI (NCI-H460 lung): > 10 µM
- TGI (BT-549 breast): > 10 µM
- TGI (786-0 renal): > 10 µM
- TGI (MALME-3M melanoma): > 10 µM
- TGI (HCC-2998 colon): > 10 µM
- TGI (SF-295 CNS): > 10 µM
- TGI (SK-MEL-2 melanoma): > 10 µM
- TGI (DU-145 prostate): > 10 µM
- TGI (HOP-62 NSCLC): > 10 µM
- TGI (MCF7 breast): > 10 µM
- TGI (NCI-H522 lung): > 10 µM
- TGI (RPMI-8226 leukemia): > 10 µM
- TGI (SW-620 colon): > 10 µM
- TGI (M14 melanoma): > 10 µM
